target: T1, human IL-17AA (Homo sapiens, UniProt Q16552); test: IL-8 release assay in human epithelial keratinocytes adult (HEKa); type: cell-based; conditions: 3 ng/ml human IL-17AA + 10 ng/ml human TNFalpha, 68-72 h, IL-8 by HTRF, read-out: Rel EC50 L-8 release assay
T1 construct: host or cells: HEK (human embryonic kidney) cells
T1 sequence (Q16552 24-155) 1: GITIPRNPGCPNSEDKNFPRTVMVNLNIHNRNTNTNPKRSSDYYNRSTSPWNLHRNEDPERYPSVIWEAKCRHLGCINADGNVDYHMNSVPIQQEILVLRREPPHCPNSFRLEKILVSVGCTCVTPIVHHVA
T1 sequence (Q16552 24-155) 2: T1 sequence (Q16552 24-155) 1
Summary of the method: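 Adult human keratinocytes in Epilife with HKGS minus hydrocortisone, treated with compound then stimulated with final 3 ng/ml HEK-derived human IL-17AA plus 10 ng/ml TNF-alpha for 68–72 h at 37 °C; TNF-alpha alone defines 100% inhibition. Secreted IL-8 by HTRF; relative IC50 and Emax from four-parameter fits.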

EC50 [nM] | Molecule
100 to 1000 | Cc1cnn(C)c1-c1ccc(NC(=O)[C@@H](NC(=O)c2ccnn2C)[C@@H]2CCc3ccc(-c4cc(N5C[C@@H]6C[C@H]5CO6)ncn4)cc32)cc1 [Example 386, N-[(1S)-2-[4-(2,4-dimethylpyrazol-3-yl)anilino]-1-[(1R)-6-[6-[(1S,4S)-2-oxa-5-azabicyclo[2.2.1]heptan-5-yl]pyrimidin-4-yl]indan-1-yl]-2-oxo-ethyl]-2-methyl-pyrazole-3-carboxamide]
< 100 | Cc1n[nH]c(C)c1-c1ccc(NC(=O)[C@@H](NC(=O)C2(F)CC2)[C@@H]2CCCc3ccc(-c4ccnc(N5C[C@H]6C[C@@H]5CO6)c4)cc32)cc1 [Example 387, N-[(1S)-2-[4-(3,5-dimethyl-1H-pyrazol-4-yl)anilino]-1-[(1R)-7-[2-[(1R,4R)-2-oxa-5-azabicyclo[2.2.1]heptan-5-yl]-4-pyridyl]tetralin-1-yl]-2-oxo-ethyl]-1-fluoro-cyclopropanecarboxamide]
< 100 | Cc1n[nH]c(C)c1-c1ccc(NC(=O)[C@@H](NC(=O)c2ccnn2C)[C@@H]2CCCc3ccc(-c4cccc(CN5CCC5)c4)cc32)cc1 [Example 388, N-[(1S)-1-[(1R)-7-[3-(azetidin-1-ylmethyl)phenyl]tetralin-1-yl]-2-[4-(3,5-dimethyl-1H-pyrazol-4-yl)anilino]-2-oxo-ethyl]-2-methyl-pyrazole-3-carboxamide]
100 to 1000 | Cc1ncn(C)c1-c1ccc(NC(=O)[C@@H](NC(=O)C2(F)CC2)[C@@H]2CCCc3ccc(-c4ccnc(N5C[C@H]6C[C@@H]5CN6)c4)cc32)cc1 [Example 389, N-[(1S)-1-[(1R)-7-[2-[(1R,4R)-2,5-diazabicyclo[2.2.1]heptan-2-yl]-4-pyridyl]tetralin-1-yl]-2-[4-(3,5-dimethylimidazol-4-yl)anilino]-2-oxo-ethyl]-1-fluoro-cyclopropanecarboxamide]
100 to 1000 | Cc1n[nH]c(C)c1-c1ccc(NC(=O)[C@@H](NC(=O)C2(F)CC2)[C@@H]2CCCc3ccc(-c4ccc(CN5C[C@H]6C[C@@H]5CO6)cc4)cc32)cc1 [Example 390, N-[(1S)-2-[4-(3,5-dimethyl-1H-pyrazol-4-yl)anilino]-1-[(1R)-7-[4-[[(1R,4R)-2-oxa-5-azabicyclo[2.2.1]heptan-5-yl]methyl]phenyl]tetralin-1-yl]-2-oxo-ethyl]-1-fluoro-cyclopropanecarboxamide]
< 100 | Cc1n[nH]c(C)c1-c1ccc(NC(=O)[C@@H](NC(=O)C2(F)CC2)[C@@H]2CCCc3ccc(-c4cc(C)c(=O)n(C(C)C)c4)cc32)cc1 [Example 391, N-[(1S)-2-[4-(3,5-dimethyl-1H-pyrazol-4-yl)anilino]-1-[(1R)-7-(1-isopropyl-5-methyl-6-oxo-3-pyridyl)tetralin-1-yl]-2-oxo-ethyl]-1-fluoro-cyclopropanecarboxamide]
100 to 1000 | Cc1cnn(C)c1-c1ccc(NC(=O)[C@@H](NC(=O)C2(F)CC2)[C@@H]2CCCc3ccc(-c4ccnc(N5C[C@@H]6C[C@H]5CN6)c4)cc32)cc1 [Example 392, N-[(1S)-1-[(1R)-7-[2-[(1S,4S)-2,5-diazabicyclo[2.2.1]heptan-2-yl]-4-pyridyl]tetralin-1-yl]-2-[4-(2,4-dimethylpyrazol-3-yl)anilino]-2-oxo-ethyl]-1-fluoro-cyclopropanecarboxamide]
100 to 1000 | Cc1n[nH]c(C)c1-c1ccc(NC(=O)[C@@H](NC(=O)C2(F)CC2)[C@@H]2CCCc3ccc(-c4cnn(C(F)F)c4)cc32)cc1 [Example 393, N-[(1S)-1-[(1R)-7-[1-(difluoromethyl)pyrazol-4-yl]tetralin-1-yl]-2-[4-(3,5-dimethyl-1H-pyrazol-4-yl)anilino]-2-oxo-ethyl]-1-fluoro-cyclopropanecarboxamide]
< 100 | Cc1n[nH]c(C)c1-c1ccc(NC(=O)[C@@H](NC(=O)c2ccnn2C)[C@@H]2CCCc3ccc(-c4ccnc(N5C[C@H]6C[C@@H]5CO6)c4)cc32)cc1 [Example 394, N-[(1S)-2-[4-(3,5-dimethyl-1H-pyrazol-4-yl)anilino]-1-[(1R)-7-[2-[(1R,4R)-2-oxa-5-azabicyclo[2.2.1]heptan-5-yl]-4-pyridyl]tetralin-1-yl]-2-oxo-ethyl]-2-methyl-pyrazole-3-carboxamide]
< 100 | Cc1n[nH]c(C)c1-c1ccc(NC(=O)[C@@H](NC(=O)C2(F)CC2)[C@@H]2CCCc3ccc(-c4cnn(C5CCOCC5)c4)cc32)cc1 [Example 396, N-[(1S)-2-[4-(3,5-dimethyl-1H-pyrazol-4-yl)anilino]-2-oxo-1-[(1R)-7-(1-tetrahydropyran-4-ylpyrazol-4-yl)tetralin-1-yl]ethyl]-1-fluoro-cyclopropanecarboxamide]
< 100 | Cc1n[nH]c(C)c1-c1ccc(NC(=O)[C@@H](NC(=O)C2(F)CC2)[C@@H]2CCCc3ccc(-c4cc(N5C[C@@H]6C[C@H]5CO6)ncn4)cc32)cc1 [Example 397, N-[(1S)-2-[4-(3,5-dimethyl-1H-pyrazol-4-yl)anilino]-1-[(1R)-7-[6-[(1S,4S)-2-oxa-5-azabicyclo[2.2.1]heptan-5-yl]pyrimidin-4-yl]tetralin-1-yl]-2-oxo-ethyl]-1-fluoro-cyclopropanecarboxamide]
< 100 | Cc1cnn(C)c1-c1ccc(NC(=O)[C@@H](NC(=O)C2(F)CC2)[C@@H]2CCCc3ccc(-c4ccnc(N5C[C@@H]6C[C@H]5CO6)c4)cc32)cc1 [Example 398, N-[(1S)-2-[4-(2,4-dimethylpyrazol-3-yl)anilino]-1-[(1R)-7-[2-[(1S,4S)-2-oxa-5-azabicyclo[2.2.1]heptan-5-yl]-4-pyridyl]tetralin-1-yl]-2-oxo-ethyl]-1-fluoro-cyclopropanecarboxamide]
< 100 | Cc1cnn(C)c1-c1ccc(NC(=O)[C@@H](NC(=O)C2(F)CC2)[C@@H]2CCCc3ccc(-c4ccnc(N5C[C@H]6C[C@@H]5CO6)c4)cc32)cc1 [Example 399, N-[(1S)-2-[4-(2,4-dimethylpyrazol-3-yl)anilino]-1-[(1R)-7-[2-[(1R,4R)-2-oxa-5-azabicyclo[2.2.1]heptan-5-yl]-4-pyridyl]tetralin-1-yl]-2-oxo-ethyl]-1-fluoro-cyclopropanecarboxamide]
100 to 1000 | Cc1nccn1-c1ccc(NC(=O)[C@@H](NC(=O)C2(F)CC2)[C@@H]2CCCc3ccc(-c4ccnc(N5C[C@@H]6C[C@H]5CO6)c4)cc32)cc1 [Example 400, 1-fluoro-N-[(1S)-2-[4-(2-methylimidazol-1-yl)anilino]-1-[(1R)-7-[2-[(1S,4S)-2-oxa-5-azabicyclo[2.2.1]heptan-5-yl]-4-pyridyl]tetralin-1-yl]-2-oxo-ethyl]cyclopropanecarboxamide]
100 to 1000 | Cc1nccn1-c1ccc(NC(=O)[C@@H](NC(=O)C2(F)CC2)[C@@H]2CCCc3ccc(-c4ccnc(N5C[C@H]6C[C@@H]5CO6)c4)cc32)cc1 [Example 401, 1-fluoro-N-[(1S)-2-[4-(2-methylimidazol-1-yl)anilino]-1-[(1R)-7-[2-[(1R,4R)-2-oxa-5-azabicyclo[2.2.1]heptan-5-yl]-4-pyridyl]tetralin-1-yl]-2-oxo-ethyl]cyclopropanecarboxamide]
< 100 | Cc1nccn1-c1ccc(NC(=O)[C@@H](NC(=O)c2ccnn2C)[C@@H]2CCCc3ccc(-c4ccnc(N5C[C@@H]6C[C@H]5CO6)c4)cc32)cc1 [Example 402, 2-methyl-N-[(1S)-2-[4-(2-methylimidazol-1-yl)anilino]-1-[(1R)-7-[2-[(1S,4S)-2-oxa-5-azabicyclo[2.2.1]heptan-5-yl]-4-pyridyl]tetralin-1-yl]-2-oxo-ethyl]pyrazole-3-carboxamide]
100 to 1000 | Cc1nccn1-c1ccc(NC(=O)[C@@H](NC(=O)c2ccnn2C)[C@@H]2CCCc3ccc(-c4ccnc(N5C[C@H]6C[C@@H]5CO6)c4)cc32)cc1 [Example 403, 2-methyl-N-[(1S)-2-[4-(2-methylimidazol-1-yl)anilino]-1-[(1R)-7-[2-[(1R,4R)-2-oxa-5-azabicyclo[2.2.1]heptan-5-yl]-4-pyridyl]tetralin-1-yl]-2-oxo-ethyl]pyrazole-3-carboxamide]
> 1000 | Cn1cncc1-c1ccc(NC(=O)[C@@H](NC(=O)C2(F)CC2)[C@@H]2CCCc3ccc(-c4ccnc(N5C[C@H]6C[C@@H]5CO6)c4)cc32)cc1O [Example 404, 1-fluoro-N-[(1S)-2-[3-hydroxy-4-(3-methylimidazol-4-yl)anilino]-1-[(1R)-7-[2-[(1R,4R)-2-oxa-5-azabicyclo[2.2.1]heptan-5-yl]-4-pyridyl]tetralin-1-yl]-2-oxo-ethyl]cyclopropanecarboxamide]
> 1000 | Cn1cnnc1-c1ccc(NC(=O)[C@@H](NC(=O)C2(F)CC2)[C@@H]2CCCc3ccc(-c4ccnc(N5C[C@H]6C[C@@H]5CO6)c4)cc32)cc1 [Example 405, 1-fluoro-N-[(1S)-2-[4-(4-methyl-1,2,4-triazol-3-yl)anilino]-1-[(1R)-7-[2-[(1R,4R)-2-oxa-5-azabicyclo[2.2.1]heptan-5-yl]-4-pyridyl]tetralin-1-yl]-2-oxo-ethyl]cyclopropanecarboxamide]
100 to 1000 | Cc1cc(-c2ccc3c(c2)[C@H]([C@H](NC(=O)C2(F)CC2)C(=O)Nc2ccc(-n4ccnc4C)cc2)CCC3)cn(C(C)C)c1=O [Example 406, 1-fluoro-N-[(1S)-1-[(1R)-7-(1-isopropyl-5-methyl-6-oxo-3-pyridyl)tetralin-1-yl]-2-[4-(2-methylimidazol-1-yl)anilino]-2-oxo-ethyl]cyclopropanecarboxamide]
100 to 1000 | N-[1-[[2-chloro-5-(1-(l-6-oxo-3- pyridyl)phenyl]methyl]-2-[4-(3-chloro- 1H-pyrazol-4-yl)anilino]-2-oxo-ethyl]-2- methyl-pyrazole-3-carboxamide [Example 180]

Source: patent US20220162191A1, “SMALL MOLECULE MODULATORS OF IL-17” (LEO PHARMA A/S, priority 2019, published 2022)
